Laboratory results from ChEMBL document CHEMBL1201862, “PubChem BioAssay data set” (2004).
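A five-concentration, 48-hour dose response in 96-well plates underlies each endpoint, interpolated linearly between surrounding concentrations. At the GI50, growth is halved.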 Calls of active or inactive are those of the source. Rule as the data show it: active = GI50 up to about 1.1 µM and inactive = higher.

How the values were obtained:
Experiment in all cases: inhibition of tumour cell growth, NCI panel, 48 h
HCC 2998 = system: HCC 2998
LOX IMVI = system: LOX IMVI
SK-MEL-2 = system: SK-MEL-2
OVCAR-3 = system: OVCAR-3
EKVX = system: EKVX
SF-295 = system: SF-295
MOLT-4 = system: MOLT-4
Hs-578T = system: Hs-578T
A498 = system: A498
UACC-257 = system: UACC-257
SK-MEL-28 = system: SK-MEL-28
HOP-62 = system: HOP-62
HCT-116 = system: HCT-116
SNB-19 = system: SNB-19
CCRF-CEM = system: CCRF-CEM
CAKI-1 = system: CAKI-1
NCI-H522 = system: NCI-H522
RPMI-8226 = system: RPMI-8226
HL-60 = system: HL-60
K562 = system: K562

Structure (SMILES) | GI50 (HCC 2998) | GI50 (LOX IMVI) | GI50 (SK-MEL-2) | GI50 (OVCAR-3) | GI50 (EKVX) | GI50 (SF-295) | GI50 (MOLT-4) | GI50 (Hs-578T) | GI50 (A498) | GI50 (UACC-257) | GI50 (SK-MEL-28) | GI50 (HOP-62) | GI50 (HCT-116) | GI50 (SNB-19) | GI50 (CCRF-CEM) | GI50 (CAKI-1) | GI50 (NCI-H522) | GI50 (RPMI-8226) | GI50 (HL-60) | GI50 (K562)
O=c1[nH]cnc2c1sc1nc3ccccc3n12 | 73.3 µM (inactive) | 27.8 µM (inactive) | 55.8 µM (inactive) | > 100 µM (inactive) | > 100 µM (inactive) | > 100 µM (inactive) | 90.6 µM (inactive) | 51.6 µM (inactive) | 33.3 µM (inactive) | > 100 µM (inactive) | > 100 µM (inactive) | > 100 µM (inactive) | 70.3 µM (inactive) | > 100 µM (inactive) | 55.6 µM (inactive) | > 100 µM (inactive) | > 100 µM (inactive) | > 100 µM (inactive) |  | 
c1ccc(/N=C2\C(=N/c3ccccc3)N(C3CCCCC3)/C(=N\C3CCCCC3)N2c2ccccc2)cc1 | > 100 µM (inactive) |  | > 100 µM (inactive) |  | > 100 µM (inactive) |  | > 100 µM (inactive) | > 100 µM (inactive) | > 100 µM (inactive) | > 100 µM (inactive) | > 100 µM (inactive) | > 100 µM (inactive) | > 100 µM (inactive) | > 100 µM (inactive) |  |  |  | > 100 µM (inactive) | > 100 µM (inactive) | > 100 µM (inactive)
CC(=O)OCCN(C1=NCCN1)/[N+](C=c1ccc(=C=[N-])cc1)=C/c1ccc(C#N)cc1 | > 100 µM (inactive) | > 100 µM (inactive) | > 100 µM (inactive) | > 100 µM (inactive) | > 100 µM (inactive) | > 100 µM (inactive) | > 100 µM (inactive) | > 100 µM (inactive) |  | > 100 µM (inactive) | > 100 µM (inactive) | > 100 µM (inactive) | > 100 µM (inactive) | > 100 µM (inactive) | > 100 µM (inactive) | > 100 µM (inactive) | > 100 µM (inactive) |  |  | > 100 µM (inactive)
COc1cccc(/C=N/n2c(-c3ccccc3)n[nH]c2=O)c1 | > 100 µM (inactive) |  | 34.6 µM (inactive) | > 100 µM (inactive) | > 100 µM (inactive) | 21.2 µM (inactive) | > 100 µM (inactive) | 22.7 µM (inactive) | 24.4 µM (inactive) | 42.6 µM (inactive) | > 100 µM (inactive) | 25.9 µM (inactive) | 28.2 µM (inactive) | 35.7 µM (inactive) | > 100 µM (inactive) | 53 µM (inactive) |  | > 100 µM (inactive) |  | > 100 µM (inactive)
O=C(CCc1ccc(O)cc1)NCCc1cccc(OCc2ccccc2)c1 | 24.4 µM (inactive) | 15.6 µM (inactive) | 17.3 µM (inactive) | 17.2 µM (inactive) | 31.5 µM (inactive) | 30.3 µM (inactive) | 14 µM (inactive) | 35.3 µM (inactive) | 55.8 µM (inactive) | 17.6 µM (inactive) | 22.7 µM (inactive) | 29.6 µM (inactive) | 21.8 µM (inactive) | 69 µM (inactive) | 2.96 µM (inactive) | 48 µM (inactive) | 32.9 µM (inactive) |  | 16.6 µM (inactive) | 17.9 µM (inactive)
COc1cc(OC)cc(C(=O)CC(=O)c2cc(OC)cc(OC)c2)c1 | > 100 µM (inactive) |  |  | > 100 µM (inactive) | > 100 µM (inactive) | > 100 µM (inactive) | > 100 µM (inactive) | > 100 µM (inactive) | > 100 µM (inactive) | > 100 µM (inactive) | > 100 µM (inactive) | > 100 µM (inactive) | 69.2 µM (inactive) | > 100 µM (inactive) | 63.5 µM (inactive) |  |  | > 100 µM (inactive) | 6.01 µM (inactive) | 46.1 µM (inactive)
COc1ccc2[nH]c3c(C)c4cnccc4c(C)c3c2c1 | 1.67 µM (inactive) |  | 5.14 µM (inactive) | 1.14 µM (inactive) | 1.87 µM (inactive) | 3.3 µM (inactive) | 0.571 µM (active) | 5.55 µM (inactive) |  | 4.07 µM (inactive) | 1.94 µM (inactive) | 1.43 µM (inactive) | 1.25 µM (inactive) | > 10 µM (inactive) | 2.07 µM (inactive) | 6.27 µM (inactive) | 2.02 µM (inactive) | 2.95 µM (inactive) | 2.28 µM (inactive) | 2.4 µM (inactive)
O=C(/C=C/c1ccc2c(c1)OCO2)CC(=O)/C=C/c1ccc2c(c1)OCO2 | > 100 µM (inactive) | 12.1 µM (inactive) | > 100 µM (inactive) | 27.1 µM (inactive) | 64 µM (inactive) | > 100 µM (inactive) | > 100 µM (inactive) | 57.9 µM (inactive) |  |  | > 10 µM (inactive) | > 100 µM (inactive) | 37.5 µM (inactive) | 92.7 µM (inactive) | 35.6 µM (inactive) | > 100 µM (inactive) | 45 µM (inactive) | > 100 µM (inactive) | 41.7 µM (inactive) | 80.2 µM (inactive)
